We go through 21 compounds from paper PMC3776224, “Investigation of acyclic uridine amide and 5′-amido nucleoside analogues as potential inhibitors of the Plasmodium falciparum dUTPase^” (Bioorganic & Medicinal Chemistry, 2013).

Data set [1] relates to P. falciparum K1, a chloroquine and pyrimethamine resistant strain. As to conditions: mean of two independent assays, previously reported, read-out: In vitro assays EC50 P.f.; cited from earlier work.
The target in data set [2] is T1, human dUTPase (HsdUTPase) (Homo sapiens, UniProt P33316).
T1 construct: made in house; host or cells: E. coli BL21 (DE3)
T1 sequence (P33316 112-252 limits assumed): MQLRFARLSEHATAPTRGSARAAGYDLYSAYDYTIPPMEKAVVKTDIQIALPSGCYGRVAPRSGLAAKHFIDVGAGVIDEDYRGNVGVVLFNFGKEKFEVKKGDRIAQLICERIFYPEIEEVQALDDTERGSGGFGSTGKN
To be noted: previously reported; read-out: Enzyme assay Ki HsdUTPase; cited from earlier work.

Data set [3] has as its system L6 cells (rat skeletal myoblast cells). To be noted: previously reported, cited from earlier work; for EC50: cytotoxicity on rat L6 myoblasts, mean of two independent assays, read-out: In vitro assays EC50 L6 cells.
Data set [4] deals with T2, recombinant PfdUTPase (Plasmodium falciparum, UniProt Q8II92).
T2 construct: made in house; host or cells: E. coli BL21 (DE3)
T2 sequence (Q8II92 1-173): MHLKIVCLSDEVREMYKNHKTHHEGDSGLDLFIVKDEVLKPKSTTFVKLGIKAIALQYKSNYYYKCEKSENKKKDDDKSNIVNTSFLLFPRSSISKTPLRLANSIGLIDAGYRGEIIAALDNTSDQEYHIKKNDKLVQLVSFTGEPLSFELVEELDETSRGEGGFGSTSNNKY
Nature of the data set: PfdUTPase enzyme inhibition assay (dUTP hydrolysis, Ki). It counts as biochemical. As to conditions: for Ki: read-out: Enzyme assay, Ki P.fal. As for the experimental part: (§1) Biological activity was evaluated by testing all compounds against the recombinant PfdUTPase and human dUTPase (HsdUTPase) in order to determine inhibition constants and selectivity.
Both recombinant P. falciparum and human dUTPases were expressed in E. coli BL21 (DE3) cells which had been transformed with the pET11Pfdut and pET3Hudut (kindly provided by P.O. Nyman, Lund University, Sweden) expression vectors, respectively. For dUTPase purification, the same procedure was used for both the human and the Plasmodium enzymes. Cell pellets from a 2.8 L IPTG-induced culture were resuspended in 70 mL of buffer A (20 mM MES, 50 mM NaCl, 1 mM DTT, pH 5.5) containing a protease inhibitor cocktail. The cells were lysed by sonication, and the cell extract was cleared by centrifugation at 14,000 rpm for 30 min. The supernatant was loaded onto a 40 mL phosphocellulose (Whatman P-11) column at 4 °C and eluted with a 50 mM to 1 M NaCl gradient in buffer A. Protein was further purified by gel filtration chromatography on a Superdex 200 HA 10/30 column at 4 °C. Pooled fractions were concentrated by centrifugation at 4 °C and desalted using a PD-10 column. The enzyme was stored in 10 mM bicine and 5 mM MgCl2, pH 8 at −80 °C.
(§2) Nucleotide hydrolysis was monitored by mixing enzyme and substrate with a rapid kinetic accessory (Hi-Tech Scientific) attached to a spectrophotometer (Cary 50) and connected to a computer for data acquisition and storage as described previously.[17] Protons, released through the hydrolysis of nucleotides, were neutralized by a pH indicator in weak buffered medium with similar pKa and monitored spectrophotometrically at the absorbance peak of the basic form of the indicator. The ratio between the indicator and the buffer concentration was 50:[…], and the absorbance changes were kept within 0.1 units. The indicator/buffer pair used was red cresol/bicine (pH 8, 573 nm). Assay mixes contained 30 nM PfdUTPase, 50 μM dUTP, 5 mM MgCl2, 1 mg/mL BSA, and 100 mM KCl. Vmax and KMapp were calculated by fitting the resulting data to the integrated Michaelis–Menten equation.

The subject of data set [5] is L6 cells (rat skeletal myoblast cells). Nature of the data set: Cytotoxicity on rat L6 myoblasts. The data set is classed as cell-based. As for the experimental part:
(§3) Activity against P. falciparum K1 strain and cytotoxicity assessment against L6 cells (rat skeletal myoblast cells) was determined as previously reported.[9]

The test system of data set [6] is P. falciparum K1, a chloroquine and pyrimethamine resistant strain. The data set is described as follows: In vitro antiplasmodial activity, parasites cultured in erythrocytes. The data set is classed as cell-based. To be noted: Plasmodium falciparum, Erythrocyte, mean of two independent assays, read-out: In vitro assays, EC50 P.fal. As for the experimental part:
as §1, §3

Data set [7] deals with T1, human dUTPase (HsdUTPase). Nature of the data set: Human dUTPase enzyme inhibition assay (dUTP hydrolysis, Ki). It counts as biochemical. As to conditions: recombinant human dUTPase; read-out: Enzyme assay, Ki H. sap. As for the experimental part: as §1
Both recombinant P. falciparum and human dUTPases were expressed in E. coli BL21 (DE3) cells which had been transformed with the pET11Pfdut and pET3Hudut (kindly provided by P.O. Nyman, Lund University, Sweden) expression vectors, respectively. For dUTPase purification, the same procedure was used for both the human and the Plasmodium enzymes. Cell pellets from a 2.8 L IPTG-induced culture were resuspended in 70 mL of buffer A (20 mM MES, 50 mM NaCl, 1 mM DTT, pH 5.5) containing a protease inhibitor cocktail. […]
as §2, with “The indicator/buffer pair used was red cresol/bicine (pH 8, 573 nm). Assay mixes contained 30 nM PfdUTPase, 50 μM dUTP, 5 mM MgCl2, 1 mg/mL BSA, and 100 mM KCl. Vmax and KMapp were calculated by fitting the resulting data to the integrated Michaelis–Menten equation.” left out

The target of data set [8] is T2, recombinant PfdUTPase. To be noted: previously reported; cited from earlier work.
[9] abbreviates: recombinant PfdUTPase, 50 μM dUTP, pH 8.
[10] abbreviates: cytotoxicity on rat L6 myoblasts, mean of two independent assays, read-out: In vitro assays, EC50 L6 cells (Tox).

Like-named read-outs stand apart in the source and are kept apart here.

`O=c1ccn(CCCCCOC(c2ccccc2)(c2ccccc2)c2ccccc2)c(=O)[nH]1` [Compound 1c]: the EC50 was 1.1 µM in [1] and 24 µM in data set [3]. Moreover, the Ki in data set [2] is above 1000 µM.
As for `O=C(c1ccccc1)n1c(=O)ccn(CCCNC(=O)C(c2ccccc2)(c2ccccc2)c2ccccc2)c1=O` [Compound 6, 3-Benzoyl-(1-(3-(triphenylacetylamino)propyl)uracil)], at recombinant PfdUTPase [4] (setting [9]), the Ki is above 100 µM. In [5], the “Cell selectivity index (SI) [EC50 L6/EC50 P. falciparum]” value is reported as 1.4. For the same compound, the EC50 in data set [5] (setting [10]) stood at 9 µM; in [6], 6.7 µM.
Regarding `O=C(CCCn1ccc(=O)[nH]c1=O)NC(c1ccccc1)c1ccccc1` [Compound 11, 1-[3-(Benzhydrylaminocarbonyl)propyl]uracil], the Ki at recombinant PfdUTPase [4] (setting [9]) amounted to 0.7 µM.
For the compound `O=C(NCCCn1ccc(=O)[nH]c1=O)C(c1ccccc1)c1ccccc1` [Compound 7, 1-(3-(Diphenylacetylamino)propyl)uracil], the melting point was 145 to 147 °C. For the same compound, at recombinant PfdUTPase [4], the “Selectivity index (SI) for enzyme [KiHsdUTPase/KiPfdUTPase]” value was found to be 26. The inhibitory constant (Ki) at recombinant PfdUTPase [4] (setting [9]) was 11 µM. In addition, the “Cell selectivity index (SI) [EC50 L6/EC50 P. falciparum]” value in data set [5] came out at 1.3. Moreover, the EC50 in [5] (setting [10]) was found to be 18 µM. Moreover, the EC50 in [6] was 14 µM. For the same compound, the inhibitory constant (Ki) in data set [7] is 286 µM.
For `O=C(NCCCO)C(c1ccccc1)c1ccccc1` [Compound 3, N-(3-Hydroxypropyl)-2,2-diphenylacetamide], the inhibitory constant (Ki) at recombinant PfdUTPase [4] (setting [9]) is above 100 µM. Besides, the “Cell selectivity index (SI) [EC50 L6/EC50 P. falciparum]” value in data set [5] was found to be 1.0. The EC50 came to 18 µM in [5] (setting [10]) and 19 µM in data set [6].
On to `O=c1ccn(CCCCOC(c2ccccc2)(c2ccccc2)c2ccccc2)c(=O)[nH]1` [Compound 1b], for which the EC50 in data set [1] is 4.9 µM; in [3], 42 µM. Besides, the Ki in [2] was above 1000 µM.
For `O=c1ccn(CCCNC(c2ccccc2)(c2ccccc2)c2ccccc2)c(=O)[nH]1` [Compound 1e], the EC50 in data set [1] is 4.4 µM; in [3], 107 µM.
With `COc1cc([C@@H]2c3cc4c(cc3[C@H](O)[C@H]3COC(=O)[C@H]23)OCO4)cc(OC)c1OC` [podophyllotoxin, reference compound], the EC50 in [5] (Rattus norvegicus, L6, read-out: In vitro assays, EC50 L6 cells (Tox)) came to 0.012 µM.
`O=c1ccn([C@H]2C[C@H](O)[C@@H](CNC(c3ccccc3)(c3ccccc3)c3ccccc3)O2)c(=O)[nH]1` [Compound 2b]: in data set [1], the EC50 was 4.5 µM. Besides, the “Selectivity index (SI) for enzyme [KiHsdUTPase/KiPfdUTPase]” value at recombinant PfdUTPase [8] is given as 232.
As to `O=c1ccn(CCCCCCOC(c2ccccc2)(c2ccccc2)c2ccccc2)c(=O)[nH]1` [Compound 1d], the results for the EC50 in data set [1] and in [3] were 2.3 µM and 44 µM, respectively.
Turning to `O=C(NCCCn1ccc(=O)[nH]c1=O)C(c1ccccc1)(c1ccccc1)c1ccccc1` [Compound 8, 1-(3-(Triphenylacetylamino)propyl)uracil], the melting point was 154 to 156 °C. Moreover, on recombinant PfdUTPase [4] (setting [9]), the Ki came to 6.3 µM.
For the compound `O=c1ccn([C@H]2C[C@H](O)[C@@H](CNC(c3ccccc3)c3ccccc3)O2)c(=O)[nH]1` [Compound 2c], the EC50 in data set [3] is above 229 µM.
As to `O=C(CCCn1ccc(=O)[nH]c1=O)NC(c1ccccc1)(c1ccccc1)c1ccccc1` [Compound 12, 1-[3-(Tritylaminocarbonyl)propyl]uracil], at recombinant PfdUTPase [4] (setting [9]), the Ki amounted to 0.2 µM.
`O=c1ccn(CCCCNC(c2ccccc2)(c2ccccc2)c2ccccc2)c(=O)[nH]1` [Compound 1f]: the results for the EC50 in [1] and in data set [3] were 3.8 µM and 33 µM, respectively. Also, on recombinant PfdUTPase [8], the “Selectivity index (SI) for enzyme [KiHsdUTPase/KiPfdUTPase]” value was above 1111. Moreover, the inhibition constant Ki in [2] is above 1000 µM.
On to `O=C(NCCCO)C(c1ccccc1)(c1ccccc1)c1ccccc1` [Compound 4, N-(3-Hydroxypropyl)-2,2,2-triphenylacetamide], for which, on recombinant PfdUTPase [4] (setting [9]), the Ki was 1000 µM. Moreover, the “Cell selectivity index (SI) [EC50 L6/EC50 P. falciparum]” value in data set [5] is 1.9. For the same compound, the EC50 was 19 µM in data set [5] (setting [10]) and 9.8 µM in data set [6].
With `O=c1ccn([C@H]2C[C@H](O)[C@@H](COC(c3ccccc3)(c3ccccc3)c3ccccc3)O2)c(=O)[nH]1` [Compound 2a], the concentration for a half-maximal effect (EC50) in [1] is 6 µM. The “Selectivity index (SI) for enzyme [KiHsdUTPase/KiPfdUTPase]” value at recombinant PfdUTPase [8] is 10. In [3], the EC50 was 192 µM and the “Cell selectivity index (SI) [EC50 L6/EC50 P. falciparum]” value is 32.
As to `O=c1ccn(CCCCCNC(c2ccccc2)(c2ccccc2)c2ccccc2)c(=O)[nH]1` [Compound 1g], the EC50 in data set [1] is 2.2 µM; in data set [3] it was 39 µM. Further, the Ki in [2] is above 1000 µM.
Regarding `O=C(NC(c1ccccc1)c1ccccc1)[C@H]1O[C@@H](n2ccc(=O)[nH]c2=O)C[C@@H]1O` [Compound 17, 2′,5′-Dideoxyuridine-5′-N-benzhydryl carboxamide], the “Selectivity index (SI) for enzyme [KiHsdUTPase/KiPfdUTPase]” value at recombinant PfdUTPase [4] is recorded as above 12. Besides, the results for the Ki (on recombinant PfdUTPase [4] (setting [9]); in data set [7]) were 8.3 µM and above 100 µM, respectively. Moreover, the results for the EC50 in data set [5] (setting [10]) and in data set [6] were above 90 µM and above 5 µM, respectively.
For the compound `O=C(O)CCCn1ccc(=O)[nH]c1=O` [Compound 10, 1-(Carboxypropyl)uracil], the melting point was 174 to 176 °C. Also, at recombinant PfdUTPase [4] (setting [9]), the “Enzyme assay, Ki P.fal” value was “low affinity” and the inhibitory constant (Ki) is above 100 µM. In addition, in data set [5], the “Cell selectivity index (SI) [EC50 L6/EC50 P. falciparum]” value is recorded as 0.7. Besides, the 50% effective concentration (EC50) in data set [5] (setting [10]) stood at 18 µM. Further, the EC50 in data set [6] was determined as 25 µM.
In the case of `O=c1ccn(CCCCCCNC(c2ccccc2)(c2ccccc2)c2ccccc2)c(=O)[nH]1` [Compound 1h], the EC50 in data set [1] is 1.1 µM; in [3], 40 µM. On recombinant PfdUTPase [8], the “Selectivity index (SI) for enzyme [KiHsdUTPase/KiPfdUTPase]” value is reported as above 556. The Ki in [2] was above 1000 µM.
Consider `O=c1ccn(CCCOC(c2ccccc2)(c2ccccc2)c2ccccc2)c(=O)[nH]1` [Compound 1a], for which the EC50 in data set [1] was 7.5 µM; in data set [3], 34 µM. At recombinant PfdUTPase [8], the “Selectivity index (SI) for enzyme [KiHsdUTPase/KiPfdUTPase]” value is given as 4.

One may read the EC50 as the concentration that produces a half-maximal response. As usually defined, the Ki is a dissociation constant, usually derived from enzyme kinetics or from competition with a known ligand. For orientation: melting point means the temperature, or range, at which the solid turns liquid.
